Test results taken from patent US9951063B2, “8-(piperazin-1-yl)-1,2,3,4-tetrahydro-isoquinoline derivatives” (IDORSIA PHARMACEUTICALS LTD, priority 2014, dated 2018).

target: human CXCR3A (Homo sapiens (Human), UniProt P49682); assay: FLIPR assay (inhibition of CXCL10-induced calcium signal); format: cell-based; settings: engineered CHO-K1 cells expressing human CXCR3A coupled to Galpha(16); Fluo-4-AM; CXCL10 agonist 20 nM; mean values where determined several times
Protocol: The bioactivity of compounds is tested in a fluorometric imaging plate reader (FLIPR: Molecular Devices) using engineered CHO-K1 cells expressing the human CXCR3A (GenBank: AY242128) coupled to a G protein (Galpha(16)). Cells are plated the day prior to bioassay in F12 medium supplemented with 10% FBS and G418 and hygromycin antibiotics to maintain recombinant selection. At the day of bioassay, cells are washed and dye loaded for one hour with Fluo-4-AM (Invitrogen) in Hanks Balanced Salt Solution (Invitrogen), buffered with 20 mM Hepes at pH 7.4 and sodium bicarbonate (0.038%), containing 5 mM probenecid. This buffer, but lacking the dye and containing probenecid at a concentration of 2.5 mM, is also used for washing steps (wash buffer); or lacking both dye and probenecid but supplemented with 0.1% BSA for compound dilution steps (dilution buffer). Cells are washed free of excess dye and 60 microliter of wash buffer is added. Stock solutions of test compounds are made up at a concentration of 10 mM in DMSO, and serially diluted in dilution buffer to concentrations required for inhibition dose response curves. After a 10 minute incubation period at 37° C., 10 microliters of each compound dilution are transferred from a compound plate to the plate containing the recombinant cells in the FLIPR instrument according to the manufacturer's instructions. Following basal readings, 10 microliter CXCL10 agonist at a concentration of 20 nM (from Peprotech) is added, again using the FLIPR instrument. Changes in fluorescence are monitored before and after addition of the test compounds. Emission peak values above base level after CXCL10 addition are exported after base line subtraction.
The calculated IC50 values may fluctuate depending on the daily assay performance. Fluctuations of this kind are known to those skilled in the art. In the case where IC50 values have been determined several times for the same compound, mean values are given.

human CXCR3A, sequence (P49682 whole entry): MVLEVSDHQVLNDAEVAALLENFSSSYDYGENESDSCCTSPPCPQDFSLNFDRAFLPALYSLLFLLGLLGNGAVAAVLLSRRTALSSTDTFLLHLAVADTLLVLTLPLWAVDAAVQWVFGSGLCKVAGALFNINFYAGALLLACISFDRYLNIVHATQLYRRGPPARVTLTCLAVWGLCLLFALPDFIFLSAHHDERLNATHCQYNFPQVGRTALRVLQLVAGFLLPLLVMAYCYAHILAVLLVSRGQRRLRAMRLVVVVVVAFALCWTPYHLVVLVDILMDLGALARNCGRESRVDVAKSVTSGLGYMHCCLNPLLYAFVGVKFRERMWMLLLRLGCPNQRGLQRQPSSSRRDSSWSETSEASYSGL

Row | SMILES | IC50
1 | COc1ncc(N2CCc3c(C(F)(F)F)ccc(N4CCN(C(=O)Cn5nc(C)cc5C)[C@H](C)C4)c3C2)cn1 [Example 24, 2-(3,5-Dimethyl-pyrazol-1-yl)-1-{(R)-4-[2-(2-methoxy-pyrimidin-5-yl)-5-trifluoromethyl-1,2,3,4-tetrahydro-isoquinolin-8-yl]-2-methyl-piperazin-1-yl}-ethanone] | 3.7 nM
2 | COc1ncc(N2CCc3c(C(F)(F)F)ccc(N4CCN(C(=O)Cn5cccn5)[C@H](C)C4)c3C2)cn1 [Example 25, 1-{(R)-4-[2-(2-Methoxy-pyrimidin-5-yl)-5-trifluoromethyl-1,2,3,4-tetrahydro-isoquinolin-8-yl]-2-methyl-piperazin-1-yl}-2-pyrazol-1-yl-ethanone] | 24 nM
3 | COc1ncc(N2CCc3c(C(F)(F)F)ccc(N4CCN(C(=O)Cn5nccn5)[C@H](C)C4)c3C2)cn1 [Example 26, 1-{(R)-4-[2-(2-Methoxy-pyrimidin-5-yl)-5-trifluoromethyl-1,2,3,4-tetrahydro-isoquinolin-8-yl]-2-methyl-piperazin-1-yl}-2-[1,2,3]triazol-2-yl-ethanone] | 98.5 nM
4 | COc1ncc(N2CCc3c(C(F)(F)F)ccc(N4CCN(C(=O)CCn5cccn5)[C@H](C)C4)c3C2)cn1 [Example 27, 1-{(R)-4-[2-(2-Methoxy-pyrimidin-5-yl)-5-trifluoromethyl-1,2,3,4-tetrahydro-isoquinolin-8-yl]-2-methyl-piperazin-1-yl}-3-pyrazol-1-yl-propan-1-one] | 908 nM
5 | CCOc1ncc(N2CCc3c(C(F)(F)F)ccc(N4CCN(C(=O)Cn5cnc6cccnc65)CC4)c3C2)cn1 [Example 28, 1-{4-[2-(2-Ethoxy-pyrimidin-5-yl)-5-trifluoromethyl-1,2,3,4-tetrahydro-isoquinolin-8-yl]-piperazin-1-yl}-2-imidazo[4,5-b]pyridin-3-yl-ethanone] | 2.4 nM
6 | CCOc1ncc(N2CCc3c(C(F)(F)F)ccc(N4CCN(C(=O)Cn5nc(C)cc5C)CC4)c3C2)cn1 [Example 29, 2-(3,5-Dimethyl-pyrazol-1-yl)-1-{4-[2-(2-ethoxy-pyrimidin-5-yl)-5-trifluoromethyl-1,2,3,4-tetrahydro-isoquinolin-8-yl]-piperazin-1-yl}-ethanone] | 30.5 nM
7 | CCOc1ncc(N2CCc3c(C(F)(F)F)ccc(N4CCN(C(=O)Cn5nc(C)nc5C)CC4)c3C2)cn1 [Example 30, 2-(3,5-Dimethyl-[1,2,4]triazol-1-yl)-1-{4-[2-(2-ethoxy-pyrimidin-5-yl)-5-trifluoromethyl-1,2,3,4-tetrahydro-isoquinolin-8-yl]-piperazin-1-yl}-ethanone] | 13.8 nM
8 | CCOc1ncc(N2CCc3c(C(F)(F)F)ccc(N4CCN(C(=O)Cn5ncc6cccnc65)CC4)c3C2)cn1 [Example 31, 1-{4-[2-(2-Ethoxy-pyrimidin-5-yl)-5-trifluoromethyl-1,2,3,4-tetrahydro-isoquinolin-8-yl]-piperazin-1-yl}-2-pyrazolo[3,4-b]pyridin-1-yl-ethanone] | 11.5 nM
9 | CCOc1ncc(N2CCc3c(C(F)(F)F)ccc(N4CCN(C(=O)Cn5cc6cccnc6n5)CC4)c3C2)cn1 [Example 32, 1-{4-[2-(2-Ethoxy-pyrimidin-5-yl)-5-trifluoromethyl-1,2,3,4-tetrahydro-isoquinolin-8-yl]-piperazin-1-yl}-2-pyrazolo[3,4-b]pyridin-2-yl-ethanone] | 9.83 nM
10 | CCOc1ncc(N2CCc3c(C(F)(F)F)ccc(N4CCN(C(=O)CN5C(=O)Cc6ccccc65)CC4)c3C2)cn1 [Example 33, 1-(2-{4-[2-(2-Ethoxy-pyrimidin-5-yl)-5-trifluoromethyl-1,2,3,4-tetrahydro-isoquinolin-8-yl]-piperazin-1-yl}-2-oxo-ethyl)-1,3-dihydro-indol-2-one] | 10.9 nM
11 | CCOc1ncc(N2CCc3c(C(F)(F)F)ccc(N4CCN(C(=O)Cn5cnc6cccnc65)[C@@H](C)C4)c3C2)cn1 [Example 34, 1-{(S)-4-[2-(2-Ethoxy-pyrimidin-5-yl)-5-trifluoromethyl-1,2,3,4-tetrahydro-isoquinolin-8-yl]-2-methyl-piperazin-1-yl}-2-imidazo[4,5-b]pyridin-3-yl-ethanone] | 16.7 nM
12 | CCOc1ncc(N2CCc3c(C(F)(F)F)ccc(N4CCN(C(=O)Cn5nc(C)cc5C)[C@@H](C)C4)c3C2)cn1 [Example 35, 2-(3,5-Dimethyl-pyrazol-1-yl)-1-{(S)-4-[2-(2-ethoxy-pyrimidin-5-yl)-5-trifluoromethyl-1,2,3,4-tetrahydro-isoquinolin-8-yl]-2-methyl-piperazin-1-yl}-ethanone] | 30.8 nM
13 | CCOc1ncc(N2CCc3c(C(F)(F)F)ccc(N4CCN(C(=O)Cn5ccc(C)n5)[C@@H](C)C4)c3C2)cn1 [Example 36, 1-{(S)-4-[2-(2-Ethoxy-pyrimidin-5-yl)-5-trifluoromethyl-1,2,3,4-tetrahydro-isoquinolin-8-yl]-2-methyl-piperazin-1-yl}-2-(3-methyl-pyrazol-1-yl)-ethanone] | 6.27 nM
14 | CCOc1ncc(N2CCc3c(C(F)(F)F)ccc(N4CCN(C(=O)CN5CCc6cccnc65)[C@@H](C)C4)c3C2)cn1 [Example 37, 2-(2,3-Dihydro-pyrrolo[2,3-b]pyridin-1-yl)-1-{(S)-4-[2-(2-ethoxy-pyrimidin-5-yl)-5-trifluoromethyl-1,2,3,4-tetrahydro-isoquinolin-8-yl]-2-methyl-piperazin-1-yl}-ethanone] | 30.9 nM
15 | Cc1nc(C)n(CC(=O)N2CCN(c3ccc(C(F)(F)F)c4c3CN(c3nc5ccc(F)cc5s3)CC4)C[C@H]2C)n1 [Example 38, 2-(3,5-Dimethyl-[1,2,4]triazol-1-yl)-1-{(R)-4-[2-(6-fluoro-benzothiazol-2-yl)-5-trifluoromethyl-1,2,3,4-tetrahydro-isoquinolin-8-yl]-2-methyl-piperazin-1-yl}-ethanone] | 15.8 nM

The next lines start with the values.

Row | IC50 | SMILES
16 | 73.5 nM | C[C@@H]1CN(c2ccc(C(F)(F)F)c3c2CN(c2nc4ccc(F)cc4s2)CC3)CCN1C(=O)Cn1ncc2cccnc21 [Example 39, 1-{(R)-4-[2-(6-Fluoro-benzothiazol-2-yl)-5-trifluoromethyl-1,2,3,4-tetrahydro-isoquinolin-8-yl]-2-methyl-piperazin-1-yl}-2-pyrazolo[3,4-b]pyridin-1-yl-ethanone]
17 | 49 nM | Cc1ccn(CC(=O)N2CCN(c3ccc(C(F)(F)F)c4c3CN(c3nc5ccc(F)cc5s3)CC4)C[C@H]2C)n1 [Example 40, 1-{(R)-4-[2-(6-Fluoro-benzothiazol-2-yl)-5-trifluoromethyl-1,2,3,4-tetrahydro-isoquinolin-8-yl]-2-methyl-piperazin-1-yl}-2-(3-methyl-pyrazol-1-yl)-ethanone]
18 | 51.4 nM | Cc1ccnn1CC(=O)N1CCN(c2ccc(C(F)(F)F)c3c2CN(c2nc4ccc(F)cc4s2)CC3)C[C@H]1C [Example 41, 1-{(R)-4-[2-(6-Fluoro-benzothiazol-2-yl)-5-trifluoromethyl-1,2,3,4-tetrahydro-isoquinolin-8-yl]-2-methyl-piperazin-1-yl}-2-(5-methyl-pyrazol-1-yl)-ethanone]
19 | 8.29 nM | Cc1nc(C)n(CC(=O)N2CCN(c3ccc(C(F)(F)F)c4c3CN(c3nc(C(F)(F)F)cs3)CC4)C[C@H]2C)n1 [Example 42, 2-(3,5-Dimethyl-[1,2,4]triazol-1-yl)-1-{(R)-2-methyl-4-[5-trifluoromethyl-2-(4-trifluoromethyl-thiazol-2-yl)-1,2,3,4-tetrahydro-isoquinolin-8-yl]-piperazin-1-yl}-ethanone]
20 | 38.6 nM | C[C@@H]1CN(c2ccc(C(F)(F)F)c3c2CN(c2nc(C(F)(F)F)cs2)CC3)CCN1C(=O)Cn1ncc2cccnc21 [Example 43, 1-{(R)-2-Methyl-4-[5-trifluoromethyl-2-(4-trifluoromethyl-thiazol-2-yl)-1,2,3,4-tetrahydro-isoquinolin-8-yl]-piperazin-1-yl}-2-pyrazolo[3,4-b]pyridin-1-yl-ethanone]
21 | 12 nM | Cc1ccn(CC(=O)N2CCN(c3ccc(C(F)(F)F)c4c3CN(c3nc(C(F)(F)F)cs3)CC4)C[C@H]2C)n1 [Example 44, 2-(3-Methyl-pyrazol-1-yl)-1-{(R)-2-methyl-4-[5-trifluoromethyl-2-(4-trifluoromethyl-thiazol-2-yl)-1,2,3,4-tetrahydro-isoquinolin-8-yl]-piperazin-1-yl}-ethanone]
22 | 12.7 nM | Cc1ccnn1CC(=O)N1CCN(c2ccc(C(F)(F)F)c3c2CN(c2nc(C(F)(F)F)cs2)CC3)C[C@H]1C [Example 45, 2-(5-Methyl-pyrazol-1-yl)-1-{(R)-2-methyl-4-[5-trifluoromethyl-2-(4-trifluoromethyl-thiazol-2-yl)-1,2,3,4-tetrahydro-isoquinolin-8-yl]-piperazin-1-yl}-ethanone]
23 | 4.37 nM | Cc1nc(C)n(CC(=O)N2CCN(c3ccc(C(F)(F)F)c4c3CN(c3cnc(C5CC5)nc3)CC4)C[C@H]2C)n1 [Example 46, 1-{(R)-4-[2-(2-Cyclopropyl-pyrimidin-5-yl)-5-trifluoromethyl-1,2,3,4-tetrahydro-isoquinolin-8-yl]-2-methyl-piperazin-1-yl}-2-(3,5-dimethyl-[1,2,4]triazol-1-yl)-ethanone]
